Source: the NIST ThermoML archive (doi:10.1007/s10765-007-0346-0)

What was measured:
[1] = xn = mol fraction of the nth substance listed; details: 101 kPa, Liquid, Capillary tube (Ostwald / Ubbelohde) method
[2] = 101.33 kPa, Liquid, Capillary tube (Ostwald / Ubbelohde) method

COC(C)(C)C [2-methoxy-2-methylpropane] + CCCCCC
kinematic viscosity [m2/s], [1]
Details | 283.15 K | 298.15 K | 313.15 K
x1 = 0.0479 | 5.097e-07 | 4.478e-07 | 4.017e-07
x1 = 0.0974 | 5.074e-07 | 4.465e-07 | 3.994e-07
x1 = 0.1983 | 5.034e-07 | 4.442e-07 | 3.96e-07
x1 = 0.2988 | 5.004e-07 | 4.427e-07 | 3.932e-07
x1 = 0.3979 | 4.99e-07 | 4.418e-07 | 3.91e-07
x1 = 0.4975 | 4.99e-07 | 4.413e-07 | 3.897e-07
x1 = 0.5974 | 4.996e-07 | 4.419e-07 | 3.895e-07
x1 = 0.6968 | 5.025e-07 | 4.431e-07 | 3.895e-07
x1 = 0.7911 | 5.059e-07 | 4.45e-07 | 3.913e-07
x1 = 0.8976 | 5.125e-07 | 4.484e-07 | 3.926e-07
x1 = 0.9486 | 5.147e-07 | 4.505e-07 | 3.94e-07

CCCCCC [hexane]
[2]
Details | kinematic viscosity [m2/s]
283.15 K | 5.125e-07
298.15 K | 4.493e-07
313.15 K | 4.039e-07

CCC(C)CC [3-methylpentane] + COC(C)(C)C
kinematic viscosity [m2/s], [1]
Details | 283.15 K | 298.15 K | 313.15 K
x2 = 0.048 | 4.915e-07 | 4.361e-07 | 3.87e-07
x2 = 0.0967 | 4.906e-07 | 4.357e-07 | 3.859e-07
x2 = 0.1961 | 4.893e-07 | 4.348e-07 | 3.843e-07
x2 = 0.2982 | 4.895e-07 | 4.347e-07 | 3.836e-07
x2 = 0.3995 | 4.906e-07 | 4.351e-07 | 3.834e-07
x2 = 0.4983 | 4.923e-07 | 4.361e-07 | 3.836e-07
x2 = 0.5992 | 4.954e-07 | 4.379e-07 | 3.85e-07
x2 = 0.6984 | 4.995e-07 | 4.406e-07 | 3.863e-07
x2 = 0.7978 | 5.048e-07 | 4.435e-07 | 3.888e-07
x2 = 0.8996 | 5.113e-07 | 4.478e-07 | 3.918e-07
x2 = 0.9491 | 5.145e-07 | 4.502e-07 | 3.937e-07

COC(C)(C)C [2-methoxy-2-methylpropane] + CCCCCCC
kinematic viscosity [m2/s], [1]
Details | 283.15 K | 298.15 K | 313.15 K
x1 = 0.0431 | 6.606e-07 | 5.683e-07 | 4.926e-07
x1 = 0.0987 | 6.512e-07 | 5.599e-07 | 4.862e-07
x1 = 0.1892 | 6.353e-07 | 5.461e-07 | 4.767e-07
x1 = 0.2958 | 6.168e-07 | 5.3e-07 | 4.658e-07
x1 = 0.3844 | 6.03e-07 | 5.169e-07 | 4.569e-07
x1 = 0.4986 | 5.845e-07 | 5.012e-07 | 4.454e-07
x1 = 0.6007 | 5.7e-07 | 4.881e-07 | 4.347e-07
x1 = 0.6999 | 5.567e-07 | 4.777e-07 | 4.246e-07
x1 = 0.7998 | 5.421e-07 | 4.68e-07 | 4.144e-07
x1 = 0.8997 | 5.298e-07 | 4.604e-07 | 4.047e-07
x1 = 0.9499 | 5.241e-07 | 4.566e-07 | 4.004e-07

CC(C)OC(C)C [diisopropyl ether] + CCC(C)CC
[1], x1 = 1
Details | kinematic viscosity [m2/s]
283.15 K | 4.959e-07
298.15 K | 4.392e-07
313.15 K | 3.861e-07

CC(C)OC(C)C [diisopropyl ether] + CCCCCC
kinematic viscosity [m2/s], [1]
Details | 283.15 K | 298.15 K | 313.15 K
x1 = 0.0523 | 5.094e-07 | 4.477e-07 | 4.011e-07
x1 = 0.0915 | 5.076e-07 | 4.467e-07 | 3.994e-07
x1 = 0.189 | 5.031e-07 | 4.446e-07 | 3.961e-07
x1 = 0.3016 | 4.99e-07 | 4.426e-07 | 3.929e-07
x1 = 0.398 | 4.963e-07 | 4.409e-07 | 3.907e-07
x1 = 0.4998 | 4.944e-07 | 4.397e-07 | 3.889e-07
x1 = 0.6007 | 4.931e-07 | 4.383e-07 | 3.874e-07
x1 = 0.6975 | 4.932e-07 | 4.381e-07 | 3.866e-07
x1 = 0.7976 | 4.934e-07 | 4.381e-07 | 3.859e-07
x1 = 0.8959 | 4.945e-07 | 4.386e-07 | 3.856e-07
x1 = 0.9432 | 4.953e-07 | 4.385e-07 | 3.86e-07

CC(C)OC(C)C [diisopropyl ether]
[2]
Details | kinematic viscosity [m2/s]
283.15 K | 4.959e-07
298.15 K | 4.392e-07
313.15 K | 3.861e-07

CC(C)OC(C)C [diisopropyl ether] + CCCCCCC
kinematic viscosity [m2/s], [1]
Details | 283.15 K | 298.15 K | 313.15 K
x1 = 0.0508 | 6.578e-07 | 5.658e-07 | 4.91e-07
x1 = 0.1002 | 6.473e-07 | 5.567e-07 | 4.831e-07
x1 = 0.1986 | 6.265e-07 | 5.387e-07 | 4.719e-07
x1 = 0.2973 | 6.068e-07 | 5.218e-07 | 4.61e-07
x1 = 0.3992 | 5.88e-07 | 5.055e-07 | 4.498e-07
x1 = 0.4991 | 5.693e-07 | 4.9e-07 | 4.385e-07
x1 = 0.5979 | 5.533e-07 | 4.779e-07 | 4.273e-07
x1 = 0.7009 | 5.372e-07 | 4.679e-07 | 4.166e-07
x1 = 0.8008 | 5.215e-07 | 4.588e-07 | 4.058e-07
x1 = 0.8954 | 5.091e-07 | 4.496e-07 | 3.96e-07
x1 = 0.95 | 5.016e-07 | 4.443e-07 | 3.909e-07

CCC(C)CC [3-methylpentane] + CC(C)OC(C)C
kinematic viscosity [m2/s], [1]
Details | 283.15 K | 298.15 K | 313.15 K
x2 = 0 | 4.928e-07 | 4.366e-07 | 3.881e-07
x2 = 0.0498 | 4.914e-07 | 4.364e-07 | 3.872e-07
x2 = 0.1011 | 4.903e-07 | 4.355e-07 | 3.861e-07
x2 = 0.201 | 4.886e-07 | 4.348e-07 | 3.847e-07
x2 = 0.3018 | 4.877e-07 | 4.342e-07 | 3.837e-07
x2 = 0.4014 | 4.871e-07 | 4.339e-07 | 3.83e-07
x2 = 0.501 | 4.876e-07 | 4.338e-07 | 3.827e-07
x2 = 0.5993 | 4.883e-07 | 4.344e-07 | 3.831e-07
x2 = 0.6973 | 4.897e-07 | 4.352e-07 | 3.833e-07
x2 = 0.8014 | 4.912e-07 | 4.366e-07 | 3.842e-07
x2 = 0.8997 | 4.934e-07 | 4.377e-07 | 3.849e-07
x2 = 0.9501 | 4.947e-07 | 4.385e-07 | 3.854e-07

CCCCCCC [heptane]
[2]
Details | kinematic viscosity [m2/s]
283.15 K | 6.697e-07
298.15 K | 5.754e-07
313.15 K | 4.986e-07

CCCCCCC [heptane] + CC(C)OC(C)C
[1], x2 = 0
Details | kinematic viscosity [m2/s]
283.15 K | 6.697e-07
298.15 K | 5.754e-07
313.15 K | 4.986e-07

COC(C)(C)C [2-methoxy-2-methylpropane]
[2]
Details | kinematic viscosity [m2/s]
283.15 K | 5.191e-07
298.15 K | 4.529e-07
313.15 K | 3.961e-07

COC(C)(C)C [2-methoxy-2-methylpropane] + CCC(C)CC
[1], x1 = 1
Details | kinematic viscosity [m2/s]
283.15 K | 5.191e-07
298.15 K | 4.529e-07
313.15 K | 3.961e-07

CCC(C)CC [3-methylpentane] + CCCCOCCCC
kinematic viscosity [m2/s], [1]
Details | 283.15 K | 298.15 K | 313.15 K
x2 = 0.0498 | 5.151e-07 | 4.505e-07 | 4.026e-07
x2 = 0.1011 | 5.383e-07 | 4.655e-07 | 4.176e-07
x2 = 0.1884 | 5.796e-07 | 4.975e-07 | 4.427e-07
x2 = 0.2989 | 6.32e-07 | 5.415e-07 | 4.712e-07
x2 = 0.4033 | 6.843e-07 | 5.846e-07 | 5.031e-07
x2 = 0.4999 | 7.344e-07 | 6.244e-07 | 5.374e-07
x2 = 0.5992 | 7.877e-07 | 6.669e-07 | 5.73e-07
x2 = 0.7016 | 8.46e-07 | 7.116e-07 | 6.088e-07
x2 = 0.799 | 9.03e-07 | 7.548e-07 | 6.442e-07
x2 = 0.9001 | 9.657e-07 | 8.021e-07 | 6.804e-07
x2 = 0.9496 | 9.979e-07 | 8.257e-07 | 6.992e-07

CCC(C)CC [3-methylpentane]
[2]
Details | kinematic viscosity [m2/s]
283.15 K | 4.928e-07
298.15 K | 4.366e-07
313.15 K | 3.881e-07

CCCCCC [hexane] + CC(C)OC(C)C
[1], x2 = 0
Details | kinematic viscosity [m2/s]
283.15 K | 5.125e-07
298.15 K | 4.493e-07
313.15 K | 4.039e-07
